Target: T1, RORgT (Homo sapiens, UniProt P51449)
T1 construct: Gal4 (fusion partner); expressed in transfected cells; host or cells: engineered Jurkat cells (Jurkat pEx/Gal/hRORγ CLBD/HYG pG5luc/blast)
T1 sequence (P51449 267-516): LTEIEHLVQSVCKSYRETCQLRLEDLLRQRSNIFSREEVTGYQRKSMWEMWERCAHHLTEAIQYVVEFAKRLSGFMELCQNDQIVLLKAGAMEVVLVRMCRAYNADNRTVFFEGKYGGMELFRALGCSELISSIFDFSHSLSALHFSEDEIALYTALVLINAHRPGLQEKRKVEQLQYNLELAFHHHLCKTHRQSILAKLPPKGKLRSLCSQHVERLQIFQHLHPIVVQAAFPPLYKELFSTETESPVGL
Assay: RORgT Gal4 Luciferase Reporter Gene Assay
Assay type: cell-based
Conditions: engineered Jurkat cells overexpressing RORgT (LBD or full length) with Gal4 Luc reporter; 18 hours at 37° C.; 40 μM to 0.67 nM; read-out: RORg_GAL4 EC50
Procedure: The compound and the cells were incubated for 18 hours at 37° C. in a cell culture incubator. Cells were then lysed with 15 uL of Steady-Glo Luciferase Assay reagent (Promega EZ550), followed by centrifuging the assay plates at 1500 RPM for 1 minute. Subsequently, the plates were read on the Envision (PerkinElmer). The inhibition of constitutive activity of RORgT achieved by graded concentrations of compound was calculated as a percentage of the luminescence signal window reduction over a control compound.

EC50	Compound
500 nM	COc1ccc(Oc2c(Cl)cc(NC(=O)Cc3cnc[nH]3)cc2Cl)cc1C(C)C [Example 250]
116 nM	COc1ccc(Oc2c(Cl)ccc(C(=O)N(C)Cc3ccc(S(C)(=O)=O)cc3)c2Cl)cc1C(C)C [Example 67]
4080 nM	COc1ccc(Oc2c(Cl)ccc(CNC(=O)CN3CCNCC3)c2Cl)cc1C(C)C [Example 89]
11 nM	CCS(=O)(=O)N1CCC(C(=O)NCc2ccc(Cl)c(Oc3ccc(OC)c(C(C)C)c3)c2Cl)CC1 [Example 212]
1.1 nM	CC1(c2cc(F)cc(Oc3c(Cl)cc(NC(=O)Cc4cccc(S(C)(=O)=O)c4)cc3Cl)c2)CC1 [Example 273]
328 nM	COc1ccc(Oc2c(Cl)ccc(C(=O)NCCc3ncn[nH]3)c2Cl)cc1C(C)C [Example 218]
67 nM	COc1ccc(Oc2c(Cl)cc(NC(=O)Cc3ccc(Cl)nc3)cc2Cl)cc1C(C)C [Example 343]
95 nM	COc1ccc(Oc2c(Cl)ccc(CN(C)C(=O)c3ccc(S(C)(=O)=O)cc3)c2Cl)cc1C(C)C [Example 22, N-(2,4-dichloro-3-(3-isopropyl-4-methoxyphenoxy)benzyl)-N-methyl-4-(methylsulfonyl)benzamide]
45 nM	COc1ccc(Oc2c(Cl)ccc(C(=O)NC(C)c3ccnn3C)c2Cl)cc1C(C)C (centres unmarked) [Example 217]
319 nM	COc1ccc(Oc2c(Cl)cc(NC(=O)OCC(C)(C)C#N)cc2Cl)cc1C(C)C [Example 233]
10 nM	NS(=O)(=O)c1ccc(CNC(=O)c2ccc(Cl)c(Oc3cc(F)cc(CCC(F)(F)F)c3)c2Cl)cc1 [Example 326]
284 nM	COCCNC(=O)c1ccc(Cl)c(Oc2ccc(OC)c(C(C)C)c2)c1Cl [Example 183]
63 nM	COc1ccc(Oc2c(Cl)ccc(C(=O)Nc3cccc4cnccc34)c2Cl)cc1C(C)C [Example 207]
5.7 nM	CC(c1cc(F)cc(Oc2c(Cl)cc(NC(=O)CC3CCN(S(C)(=O)=O)CC3)cc2Cl)c1)C(F)(F)F (centres unmarked) [Example 351]
14 nM	CC(C)c1cc(F)cc(Oc2c(Cl)ccc(C(=O)NCC3CCN(S(C)(=O)=O)CC3)c2Cl)c1 [Example 261]
3.5 nM	CC(c1cc(F)cc(Oc2c(Cl)cc(NC(=O)Cc3ccc(S(C)(=O)=O)cc3)cc2Cl)c1)C(F)(F)F (centres unmarked) [Example 354]
6.6 nM	C=C(C)c1cc(F)cc(Oc2c(Cl)cc(NC(=O)CC3CCN(S(C)(=O)=O)CC3)cc2Cl)c1 [Example 358]
616 nM	COc1ccc(Oc2c(Cl)ccc(C(=O)NCc3ccc(N(C)C)cc3)c2Cl)cc1C(C)C [Example 195]
325 nM	COc1ccc(Oc2c(Cl)ccc(C(=O)N3CCC(O)(c4ccccc4)CC3)c2Cl)cc1C(C)C [Example 180]
477 nM	COc1ccc(Oc2c(Cl)cc(N3CC(CNC(=O)CS(C)(=O)=O)OC3=O)cc2Cl)cc1C(C)C (centres unmarked) [Example 253]
24 nM	COc1ccc(Oc2c(Cl)ccc(CNC(=O)C3CN(S(C)(=O)=O)C3)c2Cl)cc1C(C)C [Example 88]
340 nM	COc1ccc(Oc2c(Cl)cc(NC(=O)CN3CC(NS(C)(=O)=O)C3)cc2Cl)cc1C(C)C [Example 163]

EC50	Compound
182 nM	COc1ccc(Oc2c(Cl)cc(NC(=O)CN3CC[C@H](NS(C)(=O)=O)C3)cc2Cl)cc1C(C)C [Example 165]
90 nM	COc1ccc(Oc2c(Cl)ccc(CNC(=O)CN3CCN(S(C)(=O)=O)CC3)c2Cl)cc1C(C)C [Example 186]
343 nM	COc1ccc(Oc2c(Cl)cc(NC(=O)CC#N)cc2Cl)cc1C(C)C [Example 301]
61 nM	COc1ncc(Oc2c(Cl)ccc(C(=O)N3CCC4(CC3)CN(S(C)(=O)=O)C4)c2Cl)cc1C(C)C [Example 118]
1560 nM	COc1ccc(Oc2c(Cl)cc(NC(=O)CCn3cncn3)cc2Cl)cc1C(C)C [Example 245]
15 nM	CC(c1cc(F)cc(Oc2c(Cl)cc(NC(=O)CC3CCN(S(C)(=O)=O)CC3)cc2Cl)c1)C(F)(F)F (centres unmarked) [Example 352]
1930 nM	COc1ccc(Oc2c(Cl)cc(C(=O)NCc3ccc(S(N)(=O)=O)cc3)cc2Cl)cc1C(C)C [Example 156]
939 nM	CCS(=O)(=O)c1ccccc1CNC(=O)c1cc(Cl)c(Oc2ccc(OC)c(C(C)C)c2)c(Cl)c1 [Example 157]
123 nM	COc1ccc(Oc2c(Cl)cc(NC(=O)Cc3cnn(C)c3)cc2Cl)cc1C(C)C [Example 246]
129 nM	COc1ccc(Oc2c(Cl)ccc(C(=O)N3CCN(C(C)=O)CC3)c2Cl)cc1C(C)C [Example 203]
19 nM	COc1ccc(Oc2c(Cl)ccc(CNC(=O)C3CCN(S(C)(=O)=O)CC3)c2Cl)cc1C(C)C [Example 213]
1310 nM	COc1ccc(Oc2c(Cl)ccc(C(=O)NCCCCO)c2Cl)cc1C(C)C [Example 81]
28 nM	COc1ncc(Oc2c(Cl)ccc(CNC(=O)c3ccc(S(N)(=O)=O)cc3)c2Cl)cc1C(C)C [Example 146]
13 nM	COc1ccc(Oc2c(Cl)ccc(C(=O)NCC3CCN(S(N)(=O)=O)CC3)c2Cl)cc1C(C)C [Example 96]
173 nM	COc1ccc(Oc2c(Cl)cc(NC(=O)Cc3cn[nH]c3)cc2Cl)cc1C(C)C [Example 7]
46 nM	COc1ccc(Oc2c(Cl)ccc(NC(=O)Cc3ccc(S(N)(=O)=O)cc3)c2Cl)cc1C(C)C [Example 61]
6.9 nM	COc1ncc(Oc2c(Cl)cc(NC(=O)CC3CCN(S(C)(=O)=O)CC3)cc2Cl)cc1C(C)(C)F [Example 28, N-(3,5-dichloro-4-((5-(2-fluoropropan-2-yl)-6-methoxypyridin-3-yl)oxy)phenyl)-2-(1-(methylsulfonyl)piperidin-4-yl)acetamide]
153 nM	COc1ccc(Oc2c(Cl)cc(NC(=O)Cc3cnn(S(C)(=O)=O)c3)cc2Cl)cc1C(C)(C)C [Example 256]
185 nM	C=C(C)c1cc(Oc2c(Cl)cc(NC(=O)CC3CCN(S(C)(=O)=O)CC3)cc2Cl)ccc1Cl [Example 269]
121 nM	CCS(=O)(=O)N1CC2(CCN(C(=O)c3ccc(Cl)c(Oc4cc(F)cc(C(C)C)c4)c3Cl)CC2)C1 [Example 124]
139 nM	COc1ccc(Oc2c(Cl)ccc(CNC(=O)c3ccc(S(N)(=O)=O)cc3)c2Cl)cc1C(C)C [Example 60]
17 nM	COc1ccc(Oc2c(Cl)ccc(C(=O)N3CCC4(CC3)CN(S(C)(=O)=O)C4)c2Cl)cc1C(C)C [Example 109]

EC50	Compound
264 nM	COc1ccc(Oc2c(Cl)cc(NC(=O)CCCS(N)(=O)=O)cc2Cl)cc1C(C)C [Example 282]
940 nM	COc1ccc(Oc2c(Cl)cc(NC(=O)C3CC3)cc2Cl)cc1C(C)C [Example 292]
265 nM	CCS(=O)(=O)NC1CCN(CC(=O)Nc2cc(Cl)c(Oc3ccc(OC)c(C(C)C)c3)c(Cl)c2)CC1 [Example 173]
953 nM	COC(=O)CNC(=O)c1ccc(Cl)c(Oc2ccc(OC)c(C(C)C)c2)c1Cl [Example 77]
4520 nM	COc1ccc(Oc2c(Cl)cc(NC(=O)c3cnccn3)cc2Cl)cc1C(C)C [Example 294]
170 nM	COc1ccc(Oc2c(Cl)cc(NC(=O)Cc3cncc(Cl)n3)cc2Cl)cc1C(C)C [Example 239]
14 nM	COc1ccc(Oc2c(Cl)ccc(C(=O)NCc3ccc(S(N)(=O)=O)nc3)c2Cl)cc1C(C)C [Example 101]
659 nM	CCCCNC(=O)c1ccc(Cl)c(Oc2ccc(OC)c(C(C)C)c2)c1Cl [Example 209]
1820 nM	COc1ccc(Oc2c(Cl)cc(NC(=O)c3c[nH]c4ncncc34)cc2Cl)cc1C(C)C [Example 347]
30 nM	COc1ncc(Oc2c(Cl)cc(NC(=O)CC3CCN(S(C)(=O)=O)CC3)cc2Cl)cc1C(C)(C)O [Example 27, N-(3,5-dichloro-4-((5-(2-hydroxypropan-2-yl)-6-methoxypyridin-3-yl)oxy)phenyl)-2-(1-(methylsulfonyl)piperidin-4-yl)acetamide]
421 nM	COc1ccc(Oc2c(Cl)cc(NS(=O)(=O)C(C)C)cc2Cl)cc1C(C)C [Example 305]
508 nM	COc1ccc(Oc2c(Cl)ccc(C(=O)NCCO)c2Cl)cc1C(C)C [Example 208]
5.2 nM	COc1ncc(Oc2c(Cl)cc(NC(=O)CN3CCN(S(C)(=O)=O)CC3)cc2Cl)cc1C(C)C [Example 17, N-(3,5-dichloro-4-((5-isopropyl-6-methoxypyridin-3-yl)oxy)phenyl)-2-(4-(methylsulfonyl)piperazin-1-yl)acetamide]
14 nM	CC(c1cc(F)cc(Oc2c(Cl)cc(NC(=O)Cc3ccc(S(C)(=O)=O)cc3)cc2Cl)c1)C(F)(F)F (centres unmarked) [Example 353]
153 nM	COc1ccc(Oc2c(Cl)cc(NC(=O)Cc3cccnc3)cc2Cl)cc1CC(C)C [Example 311]
286 nM	COc1ccc(Oc2c(Cl)cc(NC(=O)CN3CC(NS(=O)(=O)C4CC4)C3)cc2Cl)cc1C(C)C [Example 174]
3.9 nM	CC1(c2cc(F)cc(Oc3c(Cl)cc(NC(=O)Cc4ccc(S(C)(=O)=O)cc4)cc3Cl)c2)CC1 [Example 274]
5.6 nM	CC1(c2cc(F)cc(Oc3c(Cl)ccc(C(=O)N4CCC5(CC4)CN(S(C)(=O)=O)C5)c3Cl)c2)CC1 [Example 277]
152 nM	COc1ccc(Oc2c(Cl)ccc(C(=O)NCCC3CCS(=O)(=O)CC3)c2Cl)cc1C(C)C [Example 84]
1640 nM	COc1ccc(Oc2c(Cl)cc(NC(=O)CCc3c(C)n[nH]c3C)cc2Cl)cc1C(C)C [Example 249]
499 nM	COc1ccc(Oc2c(Cl)cc(C(=O)NCc3ccc(S(C)(=O)=O)cc3)cc2Cl)cc1C(C)C [Example 158]

From patent US20220306630A1, “AGONISTS OF ROR GAMMAt” (BRISTOL-MYERS SQUIBB COMPANY, priority 2019, published 2022)
